Experimental data published in US20230131111A1, “BIODEGRADABLE POLYIMIDAZOLIUMS AND OLIGOIMIDAZOLIUMS” (Nanyang Technological University, priority 2020, published 2023).

Key:
[1] = test system: P. aeruginosa PAO1; assay: Propidium iodide (PI) staining; type: cell-based, Pseudomonas aeruginosa; settings: 1 h incubation
Protocol: P. aeruginosa PAO1 was used in the PI experiments. Cells grown in MHB were harvested in mid-Log phase and resuspended in fresh MHB. PIM1 or colistin (positive control) was added at the indicated concentrations. After 1-hour incubation with the antimicrobials, the cell suspensions were sampled to determine cells numbers by plate counting. The remaining cells were washed with PBS and stained with PI (15 μg/mL) according to the manufacturer's protocol. Attune N×T Flow cytometry (Thermo Fisher Scientific, USA) was used to determine the percent of cells that had taken up PI (dead cells). A Zeiss LSM800 confocal microscope was used to image cells on a polylysine-coated petri-dish (MatTek Corporation, USA).

[2] = test system: K. pneumoniae M7 (MDR); assay: MIC90 broth microdilution; type: cell-based, Klebsiella pneumoniae
[3] = test system: E. cloacae CRE (MDR); assay: MIC90 broth microdilution; type: cell-based, Enterobacter cloacae
[4] = test system: P. aeruginosa PAES (clinical); assay: MIC90 broth microdilution; type: cell-based, Pseudomonas aeruginosa
[5] = test system: K. pneumoniae (#13883); assay: Neutropenic lung infection model; type: in vivo, BALB/c mice
Protocol: (§1) Immunosuppression was induced by IP injection of cyclophosphamide (150 mg/kg) at day 4 and cyclophosphamide (100 mg/kg) at day 1 into BALB/c female mice (8-9 weeks of age) before infection was introduced. Lung infection was established by intratracheal delivery of MRSA USA300 or K. pneumoniae (#13883). […] The mice were monitored for survival over one week. In a separate experiment, mice lungs were harvested 26 h post-infection and homogenized, followed by plating to check the bacterial burden. The animal study protocols were approved by animal ethics and welfare committee at Ningbo University.

[6] = test system: A. baumannii AB-1 (MDR); assay: MIC90 broth microdilution; type: cell-based, Acinetobacter baumannii
[7] = test system: P. aeruginosa PAER; assay: MIC90 broth microdilution; type: cell-based, Pseudomonas aeruginosa
[8] = test system: E. cloacae ECLOS (MDR); assay: MIC90 broth microdilution; type: cell-based, Enterobacter cloacae
[9] = test system: Burkholderia thailandensis 700388; type: cell-based; parameters: MIC90 Burkholderia thailandensis 700388: unit not given here; settings: for MIC90 Burkholderia thailandensis 700388: naturally colistin-resistant
[10] = test system: 3T3 cells; assay: Mammalian cell cytotoxicity, MTT; type: cell-based, Mouse; settings: half-maximal inhibition of cell viability
[11] = test system: P. aeruginosa PAO1; assay: MIC90 broth microdilution; type: cell-based, Pseudomonas aeruginosa
[12] = test system: K. pneumoniae KPNR (MDR); assay: MIC90 broth microdilution; type: cell-based, Klebsiella pneumoniae
[13] = test system: E. coli 958 (MDR); assay: MIC90 broth microdilution; type: cell-based, Escherichia coli
[14] = test system: A. baumannii X40 (EDR); assay: MIC90 broth microdilution; type: cell-based, Acinetobacter baumannii
[15] = test system: A549 cells; assay: Mammalian cell cytotoxicity, MTT; type: cell-based, Human
[16] = test system: A. baumannii X39; assay: MIC90 broth microdilution; type: cell-based, Acinetobacter baumannii; parameters: MIC90 A. baumanii X39 (XDR): unit not given here
[17] = test system: K. pneumoniae SGH10 (clinical strain); assay: MIC90 broth microdilution; type: cell-based, Klebsiella pneumoniae
[18] = test system: P. aeruginosa PAK pmrB12; assay: MIC90 broth microdilution; type: cell-based, Pseudomonas aeruginosa
[19] = test system: HepG2 cells; assay: Mammalian cell cytotoxicity, MTT; type: cell-based, Human
[20] = test system: K. pneumoniae BAK085 (MDR); assay: MIC90 broth microdilution; type: cell-based, Klebsiella pneumoniae
[21] = test system: A. baumannii X26; assay: MIC90 broth microdilution; type: cell-based, Acinetobacter baumannii; parameters: MIC90 A. baumanii X26 (MDR): unit not given here
[22] = test system: HEK293 cells; assay: Mammalian cell cytotoxicity, MTT; type: cell-based, Human
[23] = test system: MRSA USA300; assay: Neutropenic lung infection model; type: in vivo, BALB/c mice; settings: 20 mg/kg intratracheal, one week
Protocol: as §1

[24] = test system: methicillin-resistant S. aureus MRSA USA300; assay: Murine septicemia model, immunosuppressed mice; type: in vivo, BALB/c mice; settings: 15 mg/kg IP at 2 h and 26 h post-infection
Protocol: Murine septicemia model was used to evaluate the in vivo efficacy of PIM1D. The experiment for mice septicemia infection model of MDR P. aeruginosa PAER and MDR A. baumannfi AB-1 was conducted within guidance of approved protocol by the Institutional Care and Use Committee of Nanyang Technological University (NTU IACUC). The experiments for murine septicemia infection model of wild type P. aeruginosa PAO1 and methicillin-resistant S. aureus MRSA USA300 were conducted following protocol reviewed and approved by Animal Ethics and Welfare Committee (AEWC) of Ningbo University. BALB/c female mice (8-9 weeks of age) were used to test the septic shock protection efficacy for all murine infection models. Exponential phase bacteria were washed twice with saline, and re-suspended into the same volume of saline. 300 μL bacterial suspension with varied concentration in 5% mucin was introduced into each mouse via IP injection to first determine the lethal bacterial dosage, and the determined concentration was then used in the following study. […] Mouse survival was monitored over 7 days. […] Bacterial loads were also evaluated in the spleen, liver and kidney of the animal. […] The bacterial levels were analyzed with one-way classification analysis of variance (ANOVA) and two-tailed student's t-test (Graphpad Prism for Windows, version 7). […]

[25] = test system: P. aeruginosa PAO1; assay: Killing of stationary phase bacteria; type: cell-based, Pseudomonas aeruginosa
From the text: We used a previously reported method (S. Meylan et al., Cell Chem. Biol. 2017, 24, 195-206) to determine the effect of PIM1 and other antibiotics on the survival of stationary phase P. aeruginosa PAO1, except the stationary-phase cells were obtained by overnight growth in MHB, and we compared PIM1 with GEN. The results were compared to those with P. aeruginosa PAO1 harvested from MHB culture at the mid-Log growth phase. In addition, we tested the ability of an energy source to potentiate PIM1 killing of stationary-phase P. aeruginosa by addition of fumarate (15 mM) to the stationary-phase cells.

[26] = test system: Mycobacterium bovis bacillus Calmette-Guérin; type: cell-based
[27] = test system: S. aureus BAA40 (MRSA); assay: MIC90 broth microdilution; type: cell-based, Staphylococcus aureus; parameters: unit not given here
[28] = test system: E. faecalis 583 (VRE); assay: MIC90 broth microdilution; type: cell-based, Enterococcus faecalis; parameters: unit not given here
[29] = test system: S. aureus USA300 (MRSA); assay: MIC90 broth microdilution; type: cell-based, Staphylococcus aureus
[30] = test system: P. aeruginosa PAO1; assay: Laboratory evolution of resistance, sequential passage; settings: 30 days of passage
[31] = test system: P. aeruginosa PAO1; assay: Membrane electric potential, DiS-C3-(5); type: cell-based, Pseudomonas aeruginosa; settings: 30 min after addition
Protocol: Agents Chemother. 2000, 44, 3317-3321). […] The cell suspension (180 μL) was then added to each well of a 96-well plate, and the test compounds were added to the wells as indicated to bring the final mixture to 200 μL. Fluorescence was measured in each well every 2 min in a Spark 10M microtiter plate reader (Tecan, Switzerland) with excitation at 622 nm and emission 670 nm. Data were collected at 30 min after the addition of the test compound. Two independent experiments were conducted, and the data here are mean values±SD.

[32] = test system: MDR A. baumannii AB-1; assay: Murine septicemia model; type: in vivo, BALB/c mice; settings: single dose 15 mg/kg
Protocol: Murine septicemia model was used to evaluate the in vivo efficacy of PIM1D. The experiment for mice septicemia infection model of MDR P. aeruginosa PAER and MDR A. baumannfi AB-1 was conducted within guidance of approved protocol by the Institutional Care and Use Committee of Nanyang Technological University (NTU IACUC). The experiments for murine septicemia infection model of wild type P. aeruginosa PAO1 and methicillin-resistant S. aureus MRSA USA300 were conducted following protocol reviewed and approved by Animal Ethics and Welfare Committee (AEWC) of Ningbo University. BALB/c female mice (8-9 weeks of age) were used to test the septic shock protection efficacy for all murine infection models. Exponential phase bacteria were washed twice with saline, and re-suspended into the same volume of saline. 300 μL bacterial suspension with varied concentration in 5% mucin was introduced into each mouse via IP injection to first determine the lethal bacterial dosage, and the determined concentration was then used in the following study. […] Mouse survival was monitored over 7 days. […] Bacterial loads were also evaluated in the spleen, liver and kidney of the animal. […] The bacterial levels were analyzed with one-way classification analysis of variance (ANOVA) and two-tailed student's t-test (Graphpad Prism for Windows, version 7).

[33] = half-maximal inhibition of cell viability

## colistin
[1]
  propidium iodide uptake: almost all cells treated with colistin were stained
[2]
  MIC90 K. pneumoniae M7 (MDR): 16 to 32 mg/L
[3]
  MIC90 E. cloacae CRE (MDR): 2 mg/L
[4]
  MIC90 P. aeruginosa PAES (clinical): 2 mg/L
[5]; 20 mg/kg intratracheal, one week
  survival: survived
[5]; single 20 mg/kg intratracheal, versus infection control
  reduction of K. pneumoniae in lung: similar
[6]
  MIC90 A. baumanii AB-1 (MDR): 2 mg per mL
  MIC90 A. baumannii AB-1 (MDR): 2 mg/L
[7]
  MIC90 P. aeruginosa PAER: 1 mg per mL
  MIC90 P. aeruginosa PAER (MDR): 1 mg/L
[8]
  MIC90 E. cloacae ECLOS (MDR): 16 mg/L
[9]
  MIC90 B. Thailandensis 700388: >128 mg/L
  MIC90 Burkholderia thailandensis 700388: >128
[10]
  IC50 Mouse fibroblast (3T3): >1024 μg per mL
[11]
  MIC90 P. aeruginosa PAO1: 2 mg/L
[12]
  MIC90 K. pneumoniae KPNR (MDR): 2 mg/L
[13]
  MIC90 E. coli 958 (MDR): 2 mg/L
[14]
  MIC90 A. baumannii X40 (EDR): 8 mg/L
[15]; MTT
  IC50 Human epithelial (A549): >1,024 μg/ml
[15]; [33]
  IC50 Human epithelial (A549): >1024 μg per mL
[16]
  MIC90 A. baumanii X39 (XDR): 4-8
  MIC90 A. baumannii X39 (EDR): 4 to 8 mg/L
[17]
  MIC90 K. pneumoniae SGH10 (clinical strain): 2 mg/L
[18]
  MIC90 P. aeruginosa PAK pmrB12: 16 mg/L
[19]; MTT
  IC50 Human liver (HepG2): >1024 µg/mL
[19]; [33]
  IC50 Human liver (HepG2): >1024 μg per mL
[20]
  MIC90 K. pneumoniae BAK085 (MDR): 2 mg/L
[21]
  MIC90 A. baumanii X26 (MDR): 2
  MIC90 A. baumannii X26 (EDR): 2 mg/L
[22]; MTT
  IC50 Human kidney (HEK293): 64 µg/mL
[22]; [33]
  IC50 Human kidney (HEK293): 64 μg per mL

## CN[C@H](CC(C)C)C(=O)N[C@H]1C(=O)N[C@@H](CC(N)=O)C(=O)N[C@H]2C(=O)N[C@H]3C(=O)N[C@H](C(=O)N[C@H](C(=O)O)c4cc(O)cc(O)c4-c4cc3ccc4O)[C@H](O)c3ccc(c(Cl)c3)Oc3cc2cc(c3O[C@@H]2O[C@H](CO)[C@@H](O)[C@H](O)[C@H]2O[C@H]2C[C@](C)(N)[C@H](O)[C@H](C)O2)Oc2ccc(cc2Cl)[C@H]1O [vancomycin]
[23]
  survival: 40%
[24]
  survival: all mice survived

## gentamicin
[25]; compared with killing by colistin, 4-h exposure
  susceptibility of stationary phase cells to killing: much less susceptible
[25]; fumarate 15 mM
  bactericidal activity on stationary-phase cells with fumarate: restored

## polymyxin B
[26]
  MIC90 Mycobacterium bovis bacillus Calmette-Guérin: 64 mg per mL
[6]
  MIC90 A. baumanii AB-1 (MDR): 2 mg per mL
[7]
  MIC90 P. aeruginosa PAER: 2 mg per mL
[27]
  MIC90 S. aureus BAA40 (MRSA): 64-128
[9]
  MIC90 Burkholderia thailandensis 700388: >128
[10]
  IC50 Mouse fibroblast (3T3): 920 μg per mL
[15]; [33]
  IC50 Human epithelial (A549): 879 μg per mL
[16]
  MIC90 A. baumanii X39 (XDR): 8
[19]; [33]
  IC50 Human liver (HepG2): 765 μg per mL
[28]
  MIC90 E. faecalis 583 (VRE): >128
[21]
  MIC90 A. baumanii X26 (MDR): 4
[29]
  MIC90 S. aureus USA300 (MRSA): 64-128 mg per mL
[22]; [33]
  IC50 Human kidney (HEK293): 240 μg per mL

## O=C(O)c1cn(C2CC2)c2cc(N3CCNCC3)c(F)cc2c1=O [ciprofloxacin]
[30]
  emergence of resistant mutants: ciprofloxacin-resistant mutants emerged

## gramicidin
[31]
  DiS-C3-(5) fluorescence (dissipation of membrane potential): dramatic increase in DiS-C3-(5) fluorescence

## C[C@@H](O)[C@H]1C(=O)N2C(C(=O)O)=C(SCCN=CN)C[C@H]12 [Imp, Imipenem]
[32]
  survival: 80%
